What all share (format): in vivo
Assay [1] relates to Lucilia cuprina. In words: Lucilia cuprina test. Conditions: application rate 100 ppm; L1 larvae on minced horsemeat; after 2 days. How it is done:
Lucilia cuprina Test Solvent: Dimethyl Sulfoxide To produce a suitable active compound formulation, 10 mg of active compound are mixed with 0.5 ml of dimethyl sulfoxide, and the concentrate is diluted with water to the desired concentration. About 20 L1 larvae of the Australian sheep blowfly (Lucilia cuprina) are transferred into a test vessel containing minced horsemeat and the active compound preparation of the desired concentration. After 2 days, the kill in % is determined. 100% means that all the larvae have been killed; 0% means that no larvae have been killed.

Assay [2] deals with Myzus persicae. In words: Myzus persicae oral test. The note with it: 120 h, mixed population of green peach aphids, after 5 days, read-out: efficacy; for pest or weed control at 4 ppm: application rate 4 ppm. How it is done:
Myzus persicae—Oral Test [table] To produce a suitable active compound formulation, 1 part by weight of active compound is dissolved with the stated parts by weight of solvent and made up to the desired concentration with water. 50 μl of the active compound formulation are transferred into microtitre plates and made up to a final volume of 200 μl with 150 μl of IPL41 insect medium (33%+15% sugar). Subsequently, the plates are sealed with parafilm, which a mixed population of green peach aphids (Myzus persicae) within a second microtitre plate is able to puncture and imbibe the solution. After 5 days, the efficacy in % is determined. 100% means that all the aphids have been killed; 0% means that no aphids have been killed.

The subject of assay [3] is Phaedon cochleariae. In words: Phaedon cochleariae spray test. The note with it: foliar, 168 h, application rate 100 g/ha, larvae on Chinese cabbage leaf discs, after 7 days, read-out: efficacy. How it is done:
Phaedon cochleariae—Spray Test
(§1) To produce a suitable active compound formulation, 1 part by weight of active compound is dissolved with the specified parts by weight of solvent and made up to the desired concentration with water containing an emulsifier concentration of 1000 ppm. To produce further test concentrations, the formulation is diluted with emulsifier-containing water.
Discs of Chinese cabbage leaves (Brassica pekinensis) are sprayed with an active compound formulation of the desired concentration and, after drying, populated with larvae of the mustard beetle (Phaedon cochleariae).
After 7 days, the efficacy in % is determined. 100% means that all the beetle larvae have been killed; 0% means that no beetle larvae have been killed.

Assay [4] has as its system Spodoptera frugiperda. In words: Spodoptera frugiperda spray test. The note with it: foliar, 168 h, application rate 100 g/ha, caterpillars on maize leaf discs, after 7 days, read-out: efficacy. The method, then: Spodoptera frugiperda—Spray Test [table] To produce a suitable active compound formulation, 1 part by weight of active compound is dissolved with the specified parts by weight of solvent and made up to the desired concentration with water containing an emulsifier concentration of 1000 ppm. To produce further test concentrations, the formulation is diluted with emulsifier-containing water. Leaf discs of maize (Zea mays) are sprayed with an active compound formulation of the desired concentration and, after drying, populated with caterpillars of the fall armyworm (Spodoptera frugiperda). After 7 days, the efficacy in % is determined. 100% means that all the caterpillars have been killed; 0% means that no caterpillar has been killed.

Assay [5] has as its system Myzus persicae. In words: Myzus persicae spray test. The note with it: foliar, 120 h, application rate 100 g/ha, Chinese cabbage leaf discs infested by all stages, after 5 days, read-out: efficacy. The method, then:
Myzus persicae—Spray Test [table] To produce a suitable active compound formulation, 1 part by weight of active compound is dissolved with the specified parts by weight of solvent and made up to the desired concentration with water containing an emulsifier concentration of 1000 ppm. To produce further test concentrations, the formulation is diluted with emulsifier-containing water. Discs of Chinese cabbage leaves (Brassica pekinensis) infested by all stages of the green peach aphid (Myzus persicae) are sprayed with an active compound formulation of the desired concentration. After 5 days, the efficacy in % is determined. 100% means that all the aphids have been killed; 0% means that no aphids have been killed.

The test system of assay [6] is Musca domestica. In words: Musca domestica test. The note with it: application rate 100 ppm; adult houseflies, sponge with sugar solution; after 2 days. How it is done: Musca domestica Test Solvent: Dimethyl Sulfoxide To produce a suitable active compound formulation, 10 mg of active compound are mixed with 0.5 ml of dimethyl sulfoxide, and the concentrate is diluted with water to the desired concentration. Vessels containing a sponge treated with sugar solution and the desired concentration of active compound formulation are populated with 10 adult houseflies (Musca domestica). After 2 days, the kill in % is determined. 100% means that all of the flies have been killed; 0% means that none of the flies have been killed.

The subject of assay [7] is Ctenocephalides felis. In words: Ctenocephalides felis oral test. The note with it: application rate 100 ppm in citrated cattle blood; unfed adult cat fleas; after 2 days. The method, then: Ctenocephalides felis—Oral Test Solvent: Dimethyl Sulfoxide To produce a suitable active compound formulation, 10 mg of active compound are mixed with 0.5 ml of dimethyl sulfoxide. Dilution with citrated cattle blood gives the desired concentration. About 20 unfed adult cat fleas (Ctenocephalides felis) are placed into a chamber which is closed at the top and bottom with gauze. A metal cylinder whose bottom end is closed with parafilm is placed onto the chamber. The cylinder contains the blood/active compound formulation, which can be imbibed by the fleas through the parafilm membrane. After 2 days, the kill in % is determined. 100% means that all of the fleas have been killed; 0% means that none of the fleas have been killed.

Assay [8] has as its system Tetranychus urticae. As to the kind of experiment: Tetranychus urticae spray test, OP-resistant. The note with it: application rate 100 g/ha, bean leaf discs infested with all stages, after 6 days. How it is done:
Tetranychus urticae—Spray Test, OP-Resistant
as §1
Discs of bean leaves (Phaseolus vulgaris) infested with all stages of the greenhouse red spider mite (Tetranychus urticae) are sprayed with an active compound formulation of the desired concentration.
After 6 days, the efficacy in % is determined. 100% means that all the spider mites have been killed; 0% means that no spider mites have been killed.

For `CCS(=O)(=O)c1c(-c2nc3cc(C(F)(F)F)ncc3n2C)sc2ccsc12` [I-1], the “efficacy (kill in %)” value in assay [1] is given as 100%. Besides, the pest or weed control at 4 ppm in assay [2] was 100%.

Regarding `CCS(=O)(=O)c1c(-c2nc3cc(C(F)(F)F)ncc3n2C)sc2ccoc12` [I-2, 2-[6-(Ethylsulfonyl)thieno[3,2-b]furan-5-yl]-3-methyl-6-(trifluoromethyl)-3H-imidazo[4,5-c]pyridine], in assay [1], the “efficacy (kill in %)” value turned out to be 100%. In assay [2], the pest or weed control at 4 ppm was determined as 100%.

In the case of `CCS(=O)(=O)c1c(-c2nc3cc(C(F)(F)F)ncc3n2C)sc2cc(C(F)(F)F)sc12` [I-3, 2-[3-(Ethylsulfonyl)-5-(trifluoromethyl)thieno[3,2-b]thiophen-2-yl]-3-methyl-6-(trifluoromethyl)-3H-imidazo[4,5-c]pyridine], the pest or weed control at 100 g/ha in assay [3] and in assay [4] was 100% throughout. In addition, in assay [2], the pest or weed control at 4 ppm was 100%.

For the molecule `CCS(=O)(=O)c1c(-c2nc3cc(C(F)(F)F)ncc3n2C)sc2c1CCC2` [I-4, 2-[3-(Ethylsulfonyl)-5,6-dihydro-4H-cyclopenta[b]thiophen-2-yl]-3-methyl-6-(trifluoromethyl)-3H-imidazo[4,5-c]pyridine], the “efficacy (kill in %)” value in assay [1] amounted to 90%. In addition, the pest or weed control at 4 ppm in assay [2] is 100%.

In the case of `CCS(=O)(=O)c1c(-c2nc3cc(C(F)(F)F)ncc3n2C)sc2c(C#N)csc12` [I-5, 6-(Ethylsulfonyl)-5-[3-methyl-6-(trifluoromethyl)-3H-imidazo[4,5-c]pyridin-2-yl]thieno[3,2-b]thiophene-3-carbonitrile], the pest or weed control at 4 ppm in assay [2] was 100%.

With `CCS(=O)(=O)c1c(-c2nc3cc(C(F)(F)F)ncc3n2C)sc2c(NC(C)=O)csc12` [I-6, N-{6-(Ethylsulfonyl)-5-[3-methyl-6-(trifluoromethyl)-3H-imidazo[4,5-c]pyridin-2-yl]thieno[3,2-b]thiophen-3-yl}acetamide], the pest or weed control at 100 g/ha in assay [5] worked out at 90%.

Turning to `CCS(=O)(=O)c1c(-c2nc3cc(C(F)(F)F)ncc3n2C)sc2c(Br)csc12` [I-8, 2-[6-Bromo-3-(ethylsulfonyl)thieno[3,2-b]thiophen-2-yl]-3-methyl-6-(trifluoromethyl)-3H-imidazo[4,5-c]pyridine], the pest or weed control at 4 ppm in assay [2] was determined as 100%. The pest or weed control at 100 g/ha in assay [4] was 100%.

Take `CCS(=O)(=O)c1c(-c2nc3cc(C(F)(F)F)nnc3n2C)sc2nc(C(F)(F)F)sc12` [I-9]: the pest or weed control at 100 g/ha in assay [3] and in assay [4] was 100% each time. Further, the pest or weed control at 4 ppm in assay [2] amounted to 100%.

In the case of `CCS(=O)(=O)c1c(-c2nc3cc(C(F)(F)F)ncc3n2C)sc2c(-c3cnn(C)c3)csc12` [I-11, 2-[3-(Ethylsulfonyl)-6-(1-methyl-1H-pyrazol-4-yl)thieno[3,2-b]thiophen-2-yl]-3-methyl-6-(trifluoromethyl)-3H-imidazo[4,5-c]pyridine], the pest or weed control at 100 g/ha is 83% in assay [3] and 90% in assay [5]. Moreover, the pest or weed control at 4 ppm in assay [2] is 90%.

On to `CCS(=O)(=O)c1c(-c2nc3cc(C(F)(F)F)cnc3n2C)sc2nc(C(F)(F)F)sc12` [I-13], for which the pest or weed control at 100 g/ha in assay [3] and in assay [4] was 100% throughout. In addition, the pest or weed control at 4 ppm in assay [2] worked out at 90%.

On to `CCS(=O)(=O)c1c(-c2nc3cc(C(F)(F)C(F)(F)F)ncc3n2C)sc2nc(C(F)(F)F)sc12` [I-14], for which the results for the pest or weed control at 100 g/ha in assay [3], in assay [4] and in assay [5] were 100%, 100% and 90%, respectively. For the same molecule, the pest or weed control at 4 ppm in assay [2] worked out at 90%.

For `CCS(=O)(=O)c1c(-c2nc3cc(C(F)(F)F)ncc3n2C)sc2c(-c3ccccc3)csc12` [I-16, 2-[3-(Ethylsulfonyl)-6-phenylthieno[3,2-b]thiophen-2-yl]-3-methyl-6-(trifluoromethyl)-3H-imidazo[4,5-c]pyridine], the pest or weed control at 4 ppm in assay [2] worked out at 100%. The pest or weed control at 100 g/ha in assay [4] amounted to 100%; in assay [5] it was 90%.

Regarding `CCS(=O)(=O)c1c(-c2nc3cc(C(F)(F)F)nnc3n2C)sc2cc(C(F)(F)F)sc12` [I-18], the “efficacy (kill in %)” value in assay [6] is listed as 80%; in assay [7], 100%. The pest or weed control at 100 g/ha in assay [3], in assay [4] and in assay [5] was 100% each time. Further, the pest or weed control at 4 ppm in assay [2] came out at 100%.

For the molecule `CCS(=O)(=O)c1c(-c2nc3cc(C(F)(F)F)ncc3n2C)sc2c(NC(=O)C3CC3)csc12` [I-19], the pest or weed control at 0.8 ppm in assay [2] (application rate 0.8 ppm) was found to be 100%.

Consider `CCS(=O)(=O)c1c(-c2nc3cc(C(F)(F)F)ncc3n2C)sc2c(-n3cc(Cl)cn3)csc12` [I-20, 2-[6-(4-Chloro-1H-pyrazol-1-yl)-3-(ethylsulfonyl)thieno[3,2-b]thiophen-2-yl]-3-methyl-6-(trifluoromethyl)-3H-imidazo[4,5-c]pyridine], for which the pest or weed control at 100 g/ha in assay [3] and in assay [4] was 100% in each case. Moreover, the pest or weed control at 4 ppm in assay [2] came to 100%.

In the case of `CCS(=O)(=O)c1c(-c2nc3cc(C(F)(F)F)ncc3n2C)sc2c(-n3cnc(C(F)(F)F)c3)csc12` [I-21], the pest or weed control at 100 g/ha was 100% in assay [3], 100% in assay [4] and 90% in assay [5]. In addition, the pest or weed control at 4 ppm in assay [2] is 100%.

For `CCS(=O)(=O)c1c(-c2nc3cc(C(F)(F)F)ncc3n2C)sc2cc(C)sc12` [I-22], in assay [2], the pest or weed control at 4 ppm is 100%. Moreover, in assay [5], the pest or weed control at 100 g/ha was 90%.

With `CCS(=O)(=O)c1c(-c2nc3cc(C(F)(F)F)ncc3n2C)sc2c(C3CC3)csc12` [I-23], in assay [2], the pest or weed control at 4 ppm came out at 100%. Besides, the pest or weed control at 100 g/ha in assay [4] is 100%.

As to `CCS(=O)(=O)c1c(-c2nc3cc(C(F)(F)F)ncc3n2C)sc2c(C(=O)NC)csc12` [I-24], in assay [2], the pest or weed control at 4 ppm turned out to be 100%. The pest or weed control at 100 g/ha in assay [5] was 90%.

With `CCS(=O)(=O)c1c(-c2nc3cc(C(F)(F)F)ncc3n2C)sc2cc(Cl)sc12` [I-25], the pest or weed control at 4 ppm in assay [2] is 100%. The pest or weed control at 100 g/ha in assay [4] was determined as 100%; in assay [5], 90%.

Molecule `CCS(=O)(=O)c1c(-c2nc3cc(C(F)(F)F)ncc3n2C)sc2c1C(=O)CC2` [I-30] gave an efficacy in assay [8] of 90%.
